Measured values taken from publication PMC8571282 (Nature Communications, 2021).
“And” between values parts separate entries of the source, which are not always exact repeats. Equal entries are not always repeated. Where two headings read alike, the source gives them in different places.

Key:
[1] = tested on: SARS-CoV-2 WA1/2020; assay type: in vivo, ferret (Mustela putorius furo); conditions: for Transform of Nasal lavage titer, Mean 2 (treated group) / Transform of Nasal lavage titer, Mean Diff. (Vehicle vs. treated): Fig 3b; for Transform of Nasal lavage titer, Mean 2 (treated group) / Transform of Nasal lavage titer, Mean Diff. (Vehicle vs. treated) / Transform of Nasal Turbinate titer, Mean 2 (treated group) / Transform of Nasal Turbinate titer, Mean Diff. (Vehicle vs. treated): b.i.d.; for Transform of Nasal Turbinate titer, Mean 2 (treated group) / Transform of Nasal Turbinate titer, Mean Diff. (Vehicle vs. treated): Fig 3c; for Transform of Nasal Lavage RNA copies, Mean 2 (treated group) / Transform of Nasal Lavage RNA copies, Mean Diff. (Vehicle vs. treated): Fig 3f; for Transform of Nasal Lavage RNA copies, Mean 2 (treated group): unit not given here; for Transform of Nasal Lavage RNA copies, Mean Diff. (Vehicle vs. treated): unit not given here; for Transform of Nasal lavage titer, Mean 2 (treated group): unit not given here; for Transform of Nasal lavage titer, Mean Diff. (Vehicle vs. treated): unit not given here
[2] = tested on: “F2” primary HAE cells; assay: Cytotoxicity assay (PrestoBlue), “F2” HAE; conditions: 72 h; for % cell viability: F2 HAE

## CC(C)C(=O)OCC1OC(C#N)(c2ccc3c(N)ncnn23)C(OC(=O)C(C)C)C1OC(=O)C(C)C (centres unmarked) [GS-621763]
[1]; Day 1, 3 mg/kg
  Transform of Nasal lavage titer, Mean 2 (treated group): 2.834
  Transform of Nasal lavage titer, Mean Diff. (Vehicle vs. treated): 0.8732
[1]; Day 1, 10 mg/kg
  Transform of Nasal lavage titer, Mean 2 (treated group): 2.126
  Transform of Nasal lavage titer, Mean Diff. (Vehicle vs. treated): 1.581
[1]; Day 1.5, 3 mg/kg
  Transform of Nasal lavage titer, Mean 2 (treated group): 3.42
  Transform of Nasal lavage titer, Mean Diff. (Vehicle vs. treated): 1.236
[1]; Day 1.5, 10 mg/kg
  Transform of Nasal lavage titer, Mean 2 (treated group): 2.277
  Transform of Nasal lavage titer, Mean Diff. (Vehicle vs. treated): 2.379
[1]; Day 2, 3 mg/kg
  Transform of Nasal lavage titer, Mean 2 (treated group): 3.882
  Transform of Nasal lavage titer, Mean Diff. (Vehicle vs. treated): 0.3882
[1]; Day 2, 10 mg/kg
  Transform of Nasal lavage titer, Mean 2 (treated group): 1.369
  Transform of Nasal lavage titer, Mean Diff. (Vehicle vs. treated): 2.901
[1]; Day 2.5, 3 mg/kg
  Transform of Nasal lavage titer, Mean 2 (treated group): 3.714
  Transform of Nasal lavage titer, Mean Diff. (Vehicle vs. treated): 0.4855
[1]; Day 2.5, 10 mg/kg
  Transform of Nasal lavage titer, Mean 2 (treated group): 1.314
  Transform of Nasal lavage titer, Mean Diff. (Vehicle vs. treated): 2.886
[1]; Day 3, 3 mg/kg
  Transform of Nasal lavage titer, Mean 2 (treated group): 3.088
  Transform of Nasal lavage titer, Mean Diff. (Vehicle vs. treated): 0.713
[1]; Day 3, 10 mg/kg
  Transform of Nasal lavage titer, Mean 2 (treated group): 0.8495
  Transform of Nasal lavage titer, Mean Diff. (Vehicle vs. treated): 2.952
[1]; Day 3.5, 3 mg/kg
  Transform of Nasal lavage titer, Mean 2 (treated group): 3.452
  Transform of Nasal lavage titer, Mean Diff. (Vehicle vs. treated): 0.4247
[1]; Day 3.5, 10 mg/kg
  Transform of Nasal lavage titer, Mean 2 (treated group): 1.758
  Transform of Nasal lavage titer, Mean Diff. (Vehicle vs. treated): 2.118
[1]; Day 4, 3 mg/kg
  Transform of Nasal lavage titer, Mean 2 (treated group): 3.139
  Transform of Nasal lavage titer, Mean Diff. (Vehicle vs. treated): 0.849
[1]; Day 4, 10 mg/kg
  Transform of Nasal lavage titer, Mean 2 (treated group): 1
  Transform of Nasal lavage titer, Mean Diff. (Vehicle vs. treated): 2.988
[1]; 3 mg/kg
  Transform of Nasal Turbinate titer, Mean 2 (treated group): 4.557
  Transform of Nasal Turbinate titer, Mean Diff. (Vehicle vs. treated): 1.366
[1]; 10 mg/kg
  Transform of Nasal Turbinate titer, Mean 2 (treated group): 3.042
  Transform of Nasal Turbinate titer, Mean Diff. (Vehicle vs. treated): 2.881
[1]; Row 1 (time), 3mg/kg b.i.d.
  Transform of Nasal Lavage RNA copies, Mean 2 (treated group): 0
  Transform of Nasal Lavage RNA copies, Mean Diff. (Vehicle vs. treated): 0
[1]; Row 1 (time), 10mg/kg b.i.d.
  Transform of Nasal Lavage RNA copies, Mean 2 (treated group): 0
  Transform of Nasal Lavage RNA copies, Mean Diff. (Vehicle vs. treated): 0
[1]; Row 2 (time), 3mg/kg b.i.d.
  Transform of Nasal Lavage RNA copies, Mean 2 (treated group): 5.027
  Transform of Nasal Lavage RNA copies, Mean Diff. (Vehicle vs. treated): 0.585
[1]; Row 2 (time), 10mg/kg b.i.d.
  Transform of Nasal Lavage RNA copies, Mean 2 (treated group): 4.315
  Transform of Nasal Lavage RNA copies, Mean Diff. (Vehicle vs. treated): 1.297
[1]; Row 3 (time), 3mg/kg b.i.d.
  Transform of Nasal Lavage RNA copies, Mean 2 (treated group): 5.927
  Transform of Nasal Lavage RNA copies, Mean Diff. (Vehicle vs. treated): 0.2134
[1]; Row 3 (time), 10mg/kg b.i.d.
  Transform of Nasal Lavage RNA copies, Mean 2 (treated group): 4.129
  Transform of Nasal Lavage RNA copies, Mean Diff. (Vehicle vs. treated): 2.012
[1]; Row 4 (time), 3mg/kg b.i.d.
  Transform of Nasal Lavage RNA copies, Mean 2 (treated group): 5.77
  Transform of Nasal Lavage RNA copies, Mean Diff. (Vehicle vs. treated): -0.1446
[1]; Row 4 (time), 10mg/kg b.i.d.
  Transform of Nasal Lavage RNA copies, Mean 2 (treated group): 3.777
  Transform of Nasal Lavage RNA copies, Mean Diff. (Vehicle vs. treated): 1.849
[1]; Row 5 (time), 3mg/kg b.i.d.
  Transform of Nasal Lavage RNA copies, Mean 2 (treated group): 5.662
  Transform of Nasal Lavage RNA copies, Mean Diff. (Vehicle vs. treated): 0.07178
[1]; Row 5 (time), 10mg/kg b.i.d.
  Transform of Nasal Lavage RNA copies, Mean 2 (treated group): 3.751
  Transform of Nasal Lavage RNA copies, Mean Diff. (Vehicle vs. treated): 1.983
[1]; in vivo
  reduction of virus burden in the turbinates: one order of magnitude
  viral RNA copies in nasal lavages and turbinates vs vehicle: statistically significant mean reduction
  virus burden in the turbinates: approached the limit of detection
  virus load in nasal lavages vs vehicle: approximately one order of magnitude lower
  virus shedding in nasal lavages: near-detection level
[2]; 0.046 µM
  % cell viability: 84% and 81%
[2]; 1.235 µM
  % cell viability: 109%
[2]; 3.704 µM
  % cell viability: 109%
[2]; 33.333 µM
  % cell viability: 87% and 80%
[2]; “F2” HAE
  CC50: 43.8 µM
